Reference: US9783537B2, “3-(4-ethylnylphenyl) pyridopyrimidinone compounds and process for preparation thereof useful as potential anticancer agents” (Council of Scientific & Industrial Research, priority 2013, dated 2017)
Like-named read-outs stand apart in the source and are kept apart here.

What was measured:
MOLT-4 = assay: SRB 48 h growth assay, Leukemia MOLT-4; type: cell-based, human; settings: MOLT-4, Leukemia; for GI50 / CC50: Homo sapiens; for CC50: read-out: Log10 LC50 (converted)
SR = assay: SRB 48 h growth assay, Leukemia SR; type: cell-based, human; settings: for GI50 / CC50: Homo sapiens; for CC50: read-out: Log10 LC50 (converted)
NCI-H322M = assay: SRB 48 h growth assay, Non-small Cell Lung NCI-H322M; type: cell-based, human; settings: for GI50 / CC50: Homo sapiens; for CC50: read-out: Log10 LC50 (converted)
NCI-H460 = assay: SRB 48 h growth assay, Non-small Cell Lung NCI-H460; type: cell-based, human; settings: for GI50 / LC50: Homo sapiens; for LC50: read-out: Log10 LC50 (converted)
COLO 205 = assay: SRB 48 h growth assay, Colon COLO 205; type: cell-based, human; settings: COLO 205, Colon; for GI50 / CC50: Homo sapiens; for CC50: read-out: Log10 LC50 (converted)
HCT-15 = assay: SRB 48 h growth assay, Colon HCT-15; type: cell-based, human; settings: HCT-15, Colon; for GI50 / CC50: Homo sapiens; for CC50: read-out: Log10 LC50 (converted)
HT-29 = assay: SRB 48 h growth assay, Colon HT-29; type: cell-based, human; settings: HT-29, Colon; for GI50 / CC50: Homo sapiens; for CC50: read-out: Log10 LC50 (converted)
SF-268 = assay: SRB 48 h growth assay, CNS SF-268; type: cell-based, human; settings: SF-268, CNS; for GI50 / CC50: Homo sapiens; for CC50: read-out: Log10 LC50 (converted)
SF-539 = assay: SRB 48 h growth assay, CNS SF-539; type: cell-based, human; settings: SF-539, CNS; for GI50 / CC50: Homo sapiens; for CC50: read-out: Log10 LC50 (converted)
SK-MEL-28 = assay: SRB 48 h growth assay, Melanoma SK-MEL-28; type: cell-based, human; settings: SK-MEL-28, Melanoma; for GI50 / CC50: Homo sapiens; for CC50: read-out: Log10 LC50 (converted)
IGROV1 = assay: SRB 48 h growth assay, Ovarian IGROV1; type: cell-based, human; settings: for GI50 / CC50: Homo sapiens; for CC50: IGROV-1, read-out: Log10 LC50 (converted)
SN12C = assay: SRB 48 h growth assay, Renal SN12C; type: cell-based, human; settings: for GI50 / CC50: Homo sapiens; for CC50: read-out: Log10 LC50 (converted)
UO-31 = assay: SRB 48 h growth assay, Renal UO-31; type: cell-based, human; settings: UO-31, Renal; for GI50 / CC50: Homo sapiens; for CC50: read-out: Log10 LC50 (converted)
T-47D = assay: SRB 48 h growth assay, Breast T-47D; type: cell-based, human; settings: for GI50 / CC50: Homo sapiens, T47D; for CC50: read-out: Log10 LC50 (converted)
[1] = system: eight renal cancer cell line (786-0, A498, ACHN, CAKI-1, SN12C, TK-10, UO-31 and RXF 393); assay: in vitro anticancer activity, renal panel; type: cell-based; settings: Homo sapiens; eight renal cancer cell lines, exposure at least 48 h; read-out: in vitro anticancer activity, range over panel
[2] = read-out: Growth Inhibition GI50
[3] = read-out: Log10 GI50 (converted)
[4] = IGROV-1, read-out: Growth Inhibition GI50
[5] = IGROV-1, read-out: Log10 GI50 (converted)

## C#Cc1ccc(-n2c(/C=C/c3ccc(C(F)(F)F)cc3)nc3ncccc3c2=O)cc1 [4c, (E)-3-(4-Ethynylphenyl)-2-(4-(trifluoromethyl)styryl)pyrido[2,3-d]pyrimidin-4(3H)-one]
MOLT-4; [2]
  GI50: 3.01 µM
MOLT-4; [3]
  GI50: 3.02 µM
MOLT-4
  CC50: > 100 µM
  Log10 TGI50: −5.06
SR
  Log10 TGI50: −5.09
  CC50: > 100 µM
SR; [2]
  GI50: 2 µM
SR; [3]
  GI50: 2 µM
NCI-H322M
  Log10 TGI50: −5.15
  CC50: 27.5 µM
NCI-H322M; [2]
  GI50: 2.25 µM
NCI-H322M; [3]
  GI50: 2.24 µM
NCI-H460
  Log10 TGI50: −5.38
  LC50: 8.71 µM
NCI-H460; [2]
  GI50: 1.98 µM
NCI-H460; [3]
  GI50: 2 µM
COLO 205
  Log10 TGI50: −5.35
  CC50: 8.91 µM
COLO 205; [2]
  GI50: 2.23 µM
COLO 205; [3]
  GI50: 2.24 µM
HCT-15
  Log10 TGI50: −5.43
  CC50: 7.76 µM
HCT-15; [2]
  GI50: 1.74 µM
HCT-15; [3]
  GI50: 1.74 µM
HT-29
  Log10 TGI50: −5.40
  CC50: 7.76 µM
HT-29; [2]
  GI50: 2.03 µM
HT-29; [3]
  GI50: 2.04 µM
SF-268; [2]
  GI50: 2.27 µM
SF-268; [3]
  GI50: 2.29 µM
SF-268
  CC50: 24.5 µM
  Log10 TGI50: −5.23
SF-539; [2]
  GI50: 1.68 µM
SF-539; [3]
  GI50: 1.66 µM
SF-539
  CC50: 6.03 µM
  Log10 TGI50: −5.50
SK-MEL-28; [2]
  GI50: 1.78 µM
SK-MEL-28; [3]
  GI50: 1.78 µM
SK-MEL-28
  CC50: 6.03 µM
  Log10 TGI50: −5.49
IGROV1
  Log10 TGI50: −5.40
  CC50: 8.32 µM
IGROV1; [4]
  GI50: 1.96 µM
IGROV1; [5]
  GI50: 1.95 µM
SN12C
  Log10 TGI50: −5.25
  CC50: > 100 µM
SN12C; [2]
  GI50: 2.08 µM
SN12C; [3]
  GI50: 2.09 µM
UO-31; [2]
  GI50: 1.43 µM
UO-31; [3]
  GI50: 1.45 µM
UO-31
  CC50: 9.33 µM
  Log10 TGI50: −5.44
T-47D
  Log10 TGI50: −5.30
  CC50: 28.2 µM
T-47D; [2]
  GI50: 2.02 µM
T-47D; [3]
  GI50: 2 µM
[1]
  GI50: 1.69 to 4.08 µM

## C#Cc1ccc(-n2c(/C=C/c3ccc(O)cc3)nc3ncccc3c2=O)cc1 [4b, (E)-3-(4-Ethynylphenyl)-2-(4-hydroxystyryl)pyrido[2,3-d]pyrimidin-4(3H)-one]
MOLT-4; [2]
  GI50: 7.35 µM
MOLT-4; [3]
  GI50: 7.41 µM
MOLT-4
  CC50: > 100 µM
  Log10 TGI50: >−4.00
SR
  Log10 TGI50: >−4.00
  CC50: > 100 µM
SR; [2]
  GI50: 3.54 µM
SR; [3]
  GI50: 3.55 µM
NCI-H322M
  Log10 TGI50: >−4.00
  CC50: > 100 µM
NCI-H322M; [2]
  GI50: 5.58 µM
NCI-H322M; [3]
  GI50: 5.62 µM
NCI-H460
  Log10 TGI50: −4.85
  LC50: > 100 µM
NCI-H460; [2]
  GI50: 3.33 µM
NCI-H460; [3]
  GI50: 3.31 µM
COLO 205
  Log10 TGI50: >−4.00
  CC50: > 100 µM
COLO 205; [2]
  GI50: > 100 µM
COLO 205; [3]
  GI50: > 100 µM
HCT-15
  Log10 TGI50: >−4.00
  CC50: > 100 µM
HCT-15; [2]
  GI50: 4.65 µM
HCT-15; [3]
  GI50: 4.68 µM
HT-29
  Log10 TGI50: >−4.00
  CC50: > 100 µM
HT-29; [2]
  GI50: 52.8 µM
HT-29; [3]
  GI50: 52.5 µM
SF-268; [2]
  GI50: 5.24 µM
SF-268; [3]
  GI50: 5.25 µM
SF-268
  CC50: > 100 µM
  Log10 TGI50: −4.17
SF-539; [2]
  GI50: 2.12 µM
SF-539; [3]
  GI50: 2.14 µM
SF-539
  CC50: > 74.1 µM
  Log10 TGI50: −5.21
SK-MEL-28; [2]
  GI50: 5.97 µM
SK-MEL-28; [3]
  GI50: 6.03 µM
SK-MEL-28
  CC50: > 100 µM
  Log10 TGI50: >−4.00
IGROV1
  Log10 TGI50: −4.45
  CC50: > 100 µM
IGROV1; [4]
  GI50: 4.69 µM
IGROV1; [5]
  GI50: 4.68 µM
SN12C
  Log10 TGI50: >−4.00
  CC50: > 100 µM
SN12C; [2]
  GI50: 5.16 µM
SN12C; [3]
  GI50: 5.13 µM
UO-31; [2]
  GI50: 3.79 µM
UO-31; [3]
  GI50: 3.8 µM
UO-31
  CC50: > 100 µM
  Log10 TGI50: −4.47
T-47D
  Log10 TGI50: >−4.00
  CC50: > 100 µM
T-47D; [2]
  GI50: 4.63 µM
T-47D; [3]
  GI50: 4.68 µM
[1]
  GI50: 2.63 to 20.5 µM
